From PMC9252067 (Cell chemical biology, 2021)

What was measured:
M. tuberculosis H37Rv = conditions: for EC50: M. tuberculosis growth, 1 week incubation, mean ± SD (n = 3) for JCP276, BMB034, BMB038, others single dose-response experiment (n = 1)
[1] = tested on: BMB034-labeled proteins (serine hydrolases) of M. tuberculosis H37Rv; experiment: Competitive ABPP in live cells with BMB034 probe, gel-based; conditions: pre-treatment of cultures 1 h; 1 μM BMB034 labeling; JCP276 at 1 or 10 μM

Row | SMILES | EC50 (M. tuberculosis H37Rv) | inhibition of M. tuberculosis growth (M. tuberculosis H37Rv; negative control compound) | competition with BMB034 labeling [1]
1 | C#CCCOc1oc(=O)c2cc(NC(=O)Nc3ccccc3)ccc2c1Cl [BMB034, 1-(3-(but-3-yn-1-yloxy)-4-chloro-1-oxo-1H-isochromen-7-yl)-3-phenylurea] | 8.7 ± 1.1 µM | – | –
2 | C#Cc1ccc(NC(=O)Nc2ccc3c(Cl)c(OCCCBr)oc(=O)c3c2)cc1 [BMB038, 1-(3-(3-bromopropoxy)-4-chloro-1-oxo-1H-isochromen-7-yl)-3-(4-ethynylphenyl)urea] | 36 ± 11 µM | – | –
3 | O=c1oc(Cl)c(Cl)c2ccccc12 [DCI, 3,4-dichloroisocoumarin] | – | does not inhibit M. tuberculosis growth | did not compete
